This note sets out measurements from patent US20220370467A1, “USING OF A PPAR-DELTA AGONIST IN THE TREATMENT OF KIDNEY DISEASE” (Reneo Pharmaceuticals, Inc., priority 2019, published 2022).

Assay [1] has as its target T1, hPPARδ (Homo sapiens, UniProt Q03181).
T1 construct: (PPARδ: aa 128—C-terminus); expressed in transfected cells; host or cells: HEK293
T1 sequence (Q03181 128-441 limits assumed): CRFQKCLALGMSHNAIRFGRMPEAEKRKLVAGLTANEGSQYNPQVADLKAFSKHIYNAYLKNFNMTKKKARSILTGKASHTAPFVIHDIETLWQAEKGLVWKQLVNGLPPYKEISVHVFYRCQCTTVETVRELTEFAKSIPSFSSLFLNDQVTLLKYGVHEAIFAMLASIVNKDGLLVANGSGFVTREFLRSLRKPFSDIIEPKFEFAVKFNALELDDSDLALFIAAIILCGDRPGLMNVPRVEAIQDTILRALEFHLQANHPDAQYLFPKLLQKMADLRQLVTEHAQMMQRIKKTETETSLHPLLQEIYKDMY
As to the kind of experiment: in vitro assay on human PPAR subtypes (transactivation): hPPARδ. It counts as cell-based. The text has this:
(§1) “Activation” here is defined as the abovementioned downstream response, which in the case of PPAR's is gene transcription. Gene transcription may be measured indirectly as downstream production of proteins reflective of the activation of the particular PPAR subtype under study. Alternatively, an artificial reporter construct may be employed to study the activation of the individual PPAR's expressed in cells. The ligand binding domain of the particular receptor to be studied may be fused to the DNA binding domain of a transcription factor, which produces convenient laboratory readouts, such as the yeast GAL4 transcription factor DNA binding domain. The fusion protein may be transfected into a laboratory cell line along with a Gal4 enhancer, which effects the expression of the luciferase protein. When such a system is transfected into a laboratory cell line, binding of a receptor agonist to the fusion protein will result in light emission.
The PPAR transient transactivation assay may be based on transient transfection into human HEK293 cells of two plasmids encoding a chimeric test protein and a reporter protein respectively. The chimeric test protein may be a fusion of the DNA binding domain (DBD) from the yeast GAL4 transcription factor to the ligand binding domain (LBD) of the human PPAR proteins. The PPAR-LBD moiety harbored in addition to the ligand binding pocket also has the native activation domain, allowing the fusion protein to function as a PPAR ligand dependent transcription factor. The GAL4 DBD will direct the chimeric protein to bind only to Gal4 enhancers (of which none existed in HEK293 cells). The reporter plasmid contained a Gal4 enhancer driving the expression of the firefly luciferase protein. After transfection, HEK293 cells expressed the GAL4-DBD-PPAR-LBD fusion protein. The fusion protein will in turn bind to the Gal4 enhancer controlling the luciferase expression, and do nothing in the absence of ligand. […] The amount of luciferase protein is measured by light emission after addition of the appropriate substrate. […]

The target of assay [2] is T2, hPPARα (Homo sapiens, UniProt Q07869).
T2 construct: expressed in transfected cells; host or cells: HEK293
T2 sequence (Q07869 239-466 limits assumed): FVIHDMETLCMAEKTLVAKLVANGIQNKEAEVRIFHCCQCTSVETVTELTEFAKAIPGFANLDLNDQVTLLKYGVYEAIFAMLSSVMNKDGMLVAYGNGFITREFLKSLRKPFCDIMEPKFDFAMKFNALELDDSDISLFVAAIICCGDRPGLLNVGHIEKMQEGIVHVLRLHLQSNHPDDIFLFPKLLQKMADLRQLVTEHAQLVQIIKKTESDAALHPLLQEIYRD
As to the kind of experiment: in vitro assay on human PPAR subtypes (transactivation): hPPARα. In kind it is cell-based.
Description: as §1
The PPAR transient transactivation assay may be based on transient transfection into human HEK293 cells of two plasmids encoding a chimeric test protein and a reporter protein respectively. […] The amount of luciferase protein is measured by light emission after addition of the appropriate substrate. […]

Assay [3] deals with human retinoid X receptor (hRXR). In words: human retinoid X receptor activity.

Regarding `Cc1cc(OC/C=C(/c2ccc(F)cc2)c2ccc(C#CCN3CCOCC3)cc2)ccc1OCC(=O)O` [Compound 1, (E)-[4-[3-(4-Fluorophenyl)-3-[4-[3-(morpholin-4-yl)propynyl]phenyl]allyloxy]-2-methyl-phenoxy]acetic acid], in assay [1], the “agonist type on PPARδ” value is recorded as “full agonist”. Also, the “selectivity for PPARδ over PPARα” value in assay [1] (versus PPARα) was “at least 100 fold”. For the same molecule, in assay [1] (versus PPARγ), the “selectivity for PPARδ over PPARγ” value is recorded as “at least 400 fold”. In assay [2], the “agonist type on PPARα” value is reported as “partial agonist”. For the same molecule, the “activity on PPARα in transactivation assays” value in assay [2] (in some cases) is given as “negligible activity”. Moreover, the hRXR activity result in assay [3] is listed as “did not show any”.
